Where two headings read alike, the source gives them in different places.

In assay [1] the target is T1, Full-length (FL)-PRMT5-MEP50 enzyme complex (Homo sapiens, UniProt O14744).
T1 construct: Full-length (FL)-PRMT5-MEP50 enzyme complex (recombinant proteins from baculovirus-transfected Sf21 cells: FL-PRMT5; MW=73837 kDa and FL-MEP50; MW=38614); made in house; host or cells: baculovirus-transfected Sf21 cells
Briefly: PRMT5-MEP50 Enzyme Methylation Assay (Version A). It counts as biochemical. On the procedure: PRMT5-MEP50 Enzyme Methylation Assay (Version A)
PRMT5-MEP50 biochemical assay is a direct measurement of the methylation activity of the enzyme complex on a short peptide substrate derived from the N-terminus of H4 histone. Methylation experiment was performed with recombinant PRMT5-MEP50 protein complex. The assessment of inhibitory effect of small molecules was measured by the effectiveness of the compounds to inhibit this reaction (EC50).
In this assay, the potency (EC50) of each compound was determined from a twenty-point (1:2 serial dilution; top compound concentration of 100000 nM) titration curve using the following outlined procedure. To each well of a white ProxiPlus 384 well-plate, 100 nL of compound (1% DMSO in final assay volume of 10 μL) was dispensed, followed by the addition of 8 μL of 1× assay buffer (50 mM Bicine pH 8.0, 1 mM DTT, 0.004% Tween20, 0.01% BSA) containing 1.25 nM of Full-length (FL)-PRMT5-MEP50 enzyme complex (recombinant proteins from baculovirus-transfected Sf21 cells: FL-PRMT5; MW=[…] and FL-MEP50; MW=38614) and 1 μL of 150 μM S-(5′-Adenosyl)-L-Methionine Chloride (SAM). A plate were sealed and placed in a 37° C. humidified chamber for a 60 minutes pre-incubation with compound. Subsequently, each reaction was initiated by the addition of 1 μL 1× assay buffer containing 750 nM biotinylated H4R3(Me1) peptide. The final reaction in each well of 10 μL consists of 1.0 nM PRMT5-MEP50, 75 nM biotinylated-peptide, and 15 μM SAM. Methylation reactions were allowed to proceed for 150 minutes in a sealed plate at 37° C. Reactions were immediately quenched by the addition of 1 μL of 5% formic acid. A plate was then frozen and shipped to SAMDI™ Tech Inc. to determine the percent conversion from H4R3(Me1) to H4R3(Me2). Dose-response curves were generated by plotting percent effect (% product conversion; Y-axis) vs. Log 10 compound concentrations (X-axis). EC50 values were determined by non-linear regression according to models for either sigmoidal (4 parameters) or biphasic (7 parameters) dose-response curves.

Assay [2] has as its system symmetric dimethylation of arginine (SDMA) of PRMT5 substrates in MCF-7 cells. Briefly: PRMT5 Cell Target Engagement (TE) Assay. It counts as cell-based. Conditions: 3 days treatment, SDMA high content imaging. The source says:
PRMT5 Cell Target Engagement (TE) Assay
The PRMT5 TE assay is a biomarker assay for identifying compounds that inhibit symmetric dimethylation of arginine (SDMA) of PRMT5 substrates. The following substrates have been reported for PRMT5: histone H2A and H4 R3, Histone H3 R2, Histone H3 R8, spliceosome Sm proteins, ribosomal protein RPS10, p53, FEN1, nucleoplasmin, nucleolin, EGFR and EBNA. The assay focuses on detecting symmetrically dimethylated nuclear proteins using high content imaging technology. Detection of the expression of symmetrically dimethylated nuclear proteins is through a mixture of primary rabbit monoclonal antibodies to SDMA (CST 13222), which in turn recognized by an Alexafluor 488 dye-conjugated anti-rabbit IgG secondary antibody. The IN Cell Analyzer 2200 or Opera-Phenix measures nuclear Alexafluor 488 fluorescent dye intensity that is directly related to the level of expression of symmetrically dimethylated nuclear proteins at the single cell level. Nuclear AF488 dye intensities are compared to the mean value for DMSO treated cells (MIN) to report percent of inhibition for each compound-treated well.
In this assay, the cell potency (EC50) of each compound was determined from a ten point (1:3 serial dilution; top compound concentration of 10000 nM) titration curve using the following outlined procedure. Each well of a BD falcon collagen coated black/clear bottom 384-well plate was seeded with 4000 MCF-7 cells in 30 μl media and allowed to attach for 5 h. Media is ATCC-formulated Eagle's Minimum Essential Medium, Catalog No. 30-2003. To make the complete growth medium, the following components were added to the base medium: 0.01 mg/mL human recombinant insulin; fetal bovine serum to a final concentration of 10%. Additional 30 μl of media containing 2× compounds were added to each well. Cells were treated for 3 days in 37° C. CO2 incubator. On day 3, cells were fixed with Cytofix, permeabilized with 0.4% Triton-X-100/Cytofix, and washed with D-PBS without Ca/Mg. Cells were blocked with Licor Odessey blocking reagent for 1 h at room temperature, followed by incubation with anti-SDMA (1:1000) antibody at 4° C. overnight. 1° antibody was removed, followed by three washings with DPBS without Ca/Mg and 0.05% Tween20. Hoechst (5 μg/mL), Cell Mask deep stain (1:2000) and Alexa488-conjugated goat anti-rabbit IgG (2 μg/mL) was added for 1 h at room temperature. A final washing step (three washes) was performed before sealing plate for imaging on In Cell Analyzer 2200 or Opera-Phenix. Images from analyzer were uploaded to Columbus (at WP or BOS) for image analysis. IC50 values were determined by 4 parameters robust fit of percent fluorescence units vs. (Log10) compound concentrations.

The mark [3] stands for this setting: second value of 7 parameter biphasic fit, read-out: Enzyme Methylation Assay Version A (EC50 2).
Setting [4] is: single EC50 = 4 parameter single site sigmoidal fit, EC50 1 = first value of 7 parameter biphasic fit, read-out: Enzyme Methylation Assay Version A (EC50 or EC50 1).

T1 sequence (O14744 whole entry): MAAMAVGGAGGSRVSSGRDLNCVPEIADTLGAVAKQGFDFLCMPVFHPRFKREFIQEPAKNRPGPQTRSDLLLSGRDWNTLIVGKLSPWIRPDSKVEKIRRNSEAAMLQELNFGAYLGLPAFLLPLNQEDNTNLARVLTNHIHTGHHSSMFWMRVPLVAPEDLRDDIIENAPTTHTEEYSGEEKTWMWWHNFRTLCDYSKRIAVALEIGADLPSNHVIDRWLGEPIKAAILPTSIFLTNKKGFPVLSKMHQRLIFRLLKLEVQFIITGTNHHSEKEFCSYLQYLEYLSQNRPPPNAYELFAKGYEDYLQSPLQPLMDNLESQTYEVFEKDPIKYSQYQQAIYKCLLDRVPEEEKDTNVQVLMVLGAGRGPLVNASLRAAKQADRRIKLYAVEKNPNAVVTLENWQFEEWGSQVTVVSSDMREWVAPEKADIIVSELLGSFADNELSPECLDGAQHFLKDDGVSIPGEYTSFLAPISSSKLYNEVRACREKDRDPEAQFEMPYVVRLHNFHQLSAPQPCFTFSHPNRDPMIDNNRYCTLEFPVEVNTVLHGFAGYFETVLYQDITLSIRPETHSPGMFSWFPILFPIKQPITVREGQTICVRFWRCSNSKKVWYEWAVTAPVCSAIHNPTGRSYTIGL
T1 sequence (Q9BQA1 whole entry partner): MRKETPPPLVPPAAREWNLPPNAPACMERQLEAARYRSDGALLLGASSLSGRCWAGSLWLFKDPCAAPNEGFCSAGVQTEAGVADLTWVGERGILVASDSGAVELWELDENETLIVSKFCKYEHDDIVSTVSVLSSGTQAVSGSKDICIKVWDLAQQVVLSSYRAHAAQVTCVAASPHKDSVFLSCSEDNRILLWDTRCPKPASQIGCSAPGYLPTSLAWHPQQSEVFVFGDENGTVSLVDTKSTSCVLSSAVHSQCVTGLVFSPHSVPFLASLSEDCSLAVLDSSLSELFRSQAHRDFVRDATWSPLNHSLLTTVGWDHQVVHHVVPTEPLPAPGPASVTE

With `COC(C)c1cc(C)c2nc(C(=O)N3CC[C@]4(Cc5ccccc5CN4)[C@H](O)C3)cn2c1` (single isomer, unassigned) [Example 123], the figures for the EC50 in assay [1] (setting [3]), in assay [1] (setting [4]) and in assay [2] were 182 nM, 0.378 nM and 11.8 nM, respectively.
`COC(C)c1cnc2nc(C(=O)N3CC[C@]4(Cc5ccccc5CN4)[C@H](O)C3)cn2c1` (single isomer, unassigned) [Example 136]: the EC50 came to 32.9 nM in assay [1] (setting [4]) and 146 nM in assay [2] (Homo sapiens, MCF7, 72 h).
As for `COC(C)c1cnc2nc(C(=O)N3CC[C@]4(Cc5ccccc5CN4)[C@H](O)C3)cn2c1` (single isomer, unassigned) [Example 137], the EC50 in assay [1] (setting [3]) was determined as 251 nM; in assay [1] (setting [4]) it was 1.92 nM; in assay [2], 124 nM.
`CN1CC(C2CC2)Cn2cc(C(=O)N3CC[C@]4(Cc5ccccc5CN4)[C@H](O)C3)nc21` (single isomer, unassigned) [Example 139]: the EC50 in assay [1] (setting [3]) came to 767 nM; in assay [1] (setting [4]) it was 8.19 nM; in assay [2] it was 212 nM.
The like results for `CN1CC(C2CC2)Cn2cc(C(=O)N3CC[C@]4(Cc5ccccc5CN4)[C@H](O)C3)nc21` (single isomer, unassigned) [Example 142] were, in that order, 1860 nM, 29.5 nM and 620 nM.
Consider `COCCN1CC(C2CC2)Cn2cc(C(=O)N3CC[C@]4(Cc5ccccc5CN4)[C@H](O)C3)nc21` (single isomer, unassigned) [Example 143], for which the EC50 in assay [1] (setting [4]) worked out at 184 nM; in assay [2] (Homo sapiens, MCF7, 72 h) it was 318 nM.
As to `COCCN1CC(C2CC2)Cn2cc(C(=O)N3CC[C@]4(Cc5ccccc5CN4)[C@H](O)C3)nc21` (single isomer, unassigned) [Example 144], the EC50 in assay [1] (setting [4]) stood at 65.9 nM; in assay [2], 173 nM.
For the compound `CC1(C)CC1(C#N)c1cnc2nc(C(=O)N3CC[C@]4(Cc5ccccc5CN4)[C@H](O)C3)cn2c1` (single isomer, unassigned) [Example 147], the 50% effective concentration (EC50) was 0.409 nM in assay [1] (setting [4]) and 2.28 nM in assay [2].
As to `CC1(C)CC1(C#N)c1cnc2nc(C(=O)N3CC[C@]4(Cc5ccccc5CN4)[C@H](O)C3)cn2c1` (single isomer, unassigned) [Example 148], the half-maximal effective concentration (EC50) in assay [1] (setting [3]) came to 1910 nM; in assay [1] (setting [4]), 1.11 nM; in assay [2], 121 nM.
With `COC[C@H]1C[C@@H](C(F)(F)F)Cn2cc(C(=O)N3CC[C@]4(Cc5ccccc5CN4)[C@H](O)C3)nc21` (single isomer, unassigned) [Example 155], the EC50 in assay [1] (setting [3]) came out at 3980 nM; in assay [1] (setting [4]) it was 5.26 nM; in assay [2] (Homo sapiens, MCF7, 72 h), 122 nM.
For `COC[C@@H]1C[C@H](C(F)(F)F)Cn2cc(C(=O)N3CC[C@]4(Cc5ccccc5CN4)[C@H](O)C3)nc21` (single isomer, unassigned) [Example 156], in that order: 15800 nM, 42.7 nM and 642 nM.
As for `COCC1CC(C)Cn2cc(C(=O)N3CC[C@]4(Cc5ccccc5CN4)[C@H](O)C3)nc21` (single isomer, unassigned) [Example 157], the EC50 in assay [1] (setting [3]) was found to be 6460 nM; in assay [1] (setting [4]), 8.94 nM; in assay [2] it was 275 nM.
On to `COCC1CC(C)Cn2cc(C(=O)N3CC[C@]4(Cc5ccccc5CN4)[C@H](O)C3)nc21` (single isomer, unassigned) [Example 158], for which the EC50 worked out at 29800 nM in assay [1] (setting [3]), 71.6 nM in assay [1] (setting [4]) and 1700 nM in assay [2].
`COCC1CC(C)Cn2cc(C(=O)N3CC[C@]4(Cc5ccccc5CN4)[C@H](O)C3)nc21` (single isomer, unassigned) [Example 159]: the EC50 in assay [1] (setting [3]) is 22400 nM; in assay [1] (setting [4]), 61.7 nM; in assay [2], 527 nM.

The values above are taken from patent US12441730B2, “PRMT5 inhibitors” (Merck Sharp & Dohme LLC, priority 2019, dated 2025).
